In the experiment the test system is P388 leukemia ip, CD2F1 mice, survival T/C. As to the kind of experiment: NCI In Vivo Anticancer Drug Screen. Data for tumor model P388 Leukemia (intraperitoneal) in CD2F1 (CDF1) mice. The settings on record: endpoint: median survival time, higher = longer survival. In short, it runs like this: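 Mice carrying the transplanted tumor received test compound or vehicle. Survival was recorded in each group, and the value is the treated-group measurement divided by that of the vehicle-treated control group.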

The mark [1] stands for this setting: dose: 60.0 mg/kg/injection, schedule: Q01DX005 (ip), vehicle: saline with Tween-80.
Where [2] appears, read: dose: 50.0 mg/kg/injection, schedule: Q01DX005 (ip), vehicle: Klucel (hydroxypropylcellulose) (HPC).
The mark [3] stands for this setting: dose: 100.0 mg/kg/injection, schedule: Q01DX005 (ip), vehicle: Klucel (hydroxypropylcellulose) (HPC).
Setting [4] is: dose: 100.0 mg/kg/injection, schedule: Q04DX002 (ip), vehicle: saline with Tween-80.
The mark [5] stands for this setting: dose: 200.0 mg/kg/injection, schedule: Q04DX002 (ip), vehicle: saline with Tween-80.
Where [6] appears, read: dose: 50.0 mg/kg/injection, schedule: Q01DX005 (ip), vehicle: saline with Tween-80.
[7] abbreviates: dose: 100.0 mg/kg/injection, schedule: Q01DX005 (ip), vehicle: saline with Tween-80.
The mark [8] stands for this setting: dose: 200.0 mg/kg/injection, schedule: Q01DX005 (ip), vehicle: saline with Tween-80.
Where [9] appears, read: dose: 100.0 mg/kg/injection, schedule: Q01DX001 (ip), vehicle: Klucel (hydroxypropylcellulose) (HPC).
Setting [10] is: dose: 200.0 mg/kg/injection, schedule: Q01DX001 (ip), vehicle: Klucel (hydroxypropylcellulose) (HPC).

Values joined by “and” are separate entries in the source; they are usually repeats but may differ in a detail not shown here. Equal entries are not always repeated. Inconclusive results and toxic doses are left out.

On to `CCC/C=[CH]/[Hg][Cl]`, for which the T/C runs as follows: (dose: 6.25 mg/kg/injection, schedule: Q04DX003 (ip), vehicle: other) 110 % of control; (dose: 12.5 mg/kg/injection, schedule: Q04DX003 (ip), vehicle: other) 110 % of control.

Consider `O=C1Cc2ccccc2N1`, for which the T/C is 116 % of control (dose: 50.0 mg/kg/injection, schedule: Q01DX009 (ip), vehicle: saline); 107 % of control (dose: 100.0 mg/kg/injection, schedule: Q01DX009 (ip), vehicle: saline); 105 % of control (dose: 200.0 mg/kg/injection, schedule: Q01DX009 (ip), vehicle: saline).

As to `OC1CSCc2ccccc21` (configuration not stated), the T/C is 109 % of control (dose: 25.0 mg/kg/injection, schedule: Q01DX009 (ip), vehicle: other); 102 % of control (dose: 50.0 mg/kg/injection, schedule: Q01DX009 (ip), vehicle: other); 109 % of control (dose: 100.0 mg/kg/injection, schedule: Q01DX009 (ip), vehicle: other); 108 % of control (dose: 200.0 mg/kg/injection, schedule: Q01DX009 (ip), vehicle: other).

For `O=C1NC2C3CC(c4ccccc43)C12` (configuration not stated), the T/C is, setting by setting: under setting [1], 105 % of control; (dose: 120.0 mg/kg/injection, schedule: Q01DX005 (ip), vehicle: saline with Tween-80) 109 % of control; (dose: 240.0 mg/kg/injection, schedule: Q01DX005 (ip), vehicle: saline with Tween-80) 108 % of control.

With `O=C1CSC(c2ccccn2)N1CCN1C(=O)CSC1c1ccccn1` (configuration not stated), the T/C runs as follows: under setting [2], 94 % of control; under setting [3], 96 % of control; under setting [4], 97 % of control; (dose: 200.0 mg/kg/injection, schedule: Q01DX005 (ip), vehicle: Klucel (hydroxypropylcellulose) (HPC)) 97 % of control; under setting [5], 102 % of control; (dose: 400.0 mg/kg/injection, schedule: Q04DX002 (ip), vehicle: saline with Tween-80) 93 % of control.

As for `COc1cc2cc(c1Cl)N(C)C(=O)CC(OC(=O)CC(C)C)C1(C)OC1C(C)C1CC(O)(NC(=O)O1)C(OC)/C=C/C=C(C)C2` (configuration not stated), the T/C is, setting by setting: (dose: 6.2 micrograms/kg/injection, schedule: Q01DX009 (ip), vehicle: saline + alcohol) 113 % of control; (dose: 6.25 micrograms/kg/injection, schedule: Q01DX009 (ip), vehicle: saline + alcohol) 111 % of control and 120 % of control; (dose: 100.0 micrograms/kg/injection, schedule: Q01DX009 (ip), vehicle: saline + alcohol) 106 % of control.

Consider `Cc1nn(-c2ccc(Cl)cc2)c2c1c(=O)[nH]c1ccccc12`, for which the T/C is 98 % of control (dose: 3.75 mg/kg/injection, schedule: Q01DX005 (ip), vehicle: saline with Tween-80); 92 % of control (dose: 7.5 mg/kg/injection, schedule: Q01DX005 (ip), vehicle: saline with Tween-80); 87 % of control and 88 % of control (dose: 15.0 mg/kg/injection, schedule: Q01DX005 (ip), vehicle: saline with Tween-80); 87 % of control under setting [1].

For `COc1ccc2c(c1OC)C(=O)O[C@@H]2[C@H]1c2cc3c(cc2CCN1C)OCO3`, the T/C by setting is: (dose: 10.0 mg/kg/injection, schedule: Q01DX009 (ip), vehicle: saline) 108 % of control; (dose: 20.0 mg/kg/injection, schedule: Q01DX009 (ip), vehicle: saline) 114 % of control; (dose: 40.0 mg/kg/injection, schedule: Q01DX009 (ip), vehicle: saline) 108 % of control; (dose: 80.0 mg/kg/injection, schedule: Q01DX009 (ip), vehicle: saline) 99 % of control.

As for `CC1=C(C(N)=O)C(c2ccccc2Cl)NC(=S)N1` (configuration not stated), the T/C was 117 % of control (dose: 60.0 mg/kg/injection, schedule: Q01DX005 (ip), vehicle: Klucel (hydroxypropylcellulose) (HPC)); 98 % of control (dose: 120.0 mg/kg/injection, schedule: Q01DX005 (ip), vehicle: Klucel (hydroxypropylcellulose) (HPC)); 99 % of control (dose: 240.0 mg/kg/injection, schedule: Q01DX005 (ip), vehicle: Klucel (hydroxypropylcellulose) (HPC)).

In the case of `O=[n+]1ccn([O-])c2ccccc21.[Mn].[O-][Cl+3]([O-])([O-])O`, where the note is “dose: 100.0 mg/kg/injection, schedule: Q04DX003 (ip), vehicle: saline with Tween-80”, the T/C was 118 % of control.

For the molecule `O=C(CCN1CCC23c4c5ccc(O)c4OC2C(O)C=CC3C1C5)c1ccccc1` (configuration not stated), the T/C was 88 % of control under setting [2] and 99 % of control under setting [3].

Regarding `COC(=O)NC1C(C)OC(OC2C/C=C(/C)C3C=CC4C(OC5CC(OC6CC(O)C(OC7CC(O)C(OC)C(C)O7)C(C)O6)C(O)C(C)O5)C(C)CC(C)C4C3(C)/C(O)=C3\C(=O)OC4(CC(C)C(CO)=CC4/C=C\2C)C3=O)CC1(C)[N+](=O)[O-]` (configuration not stated), the T/C under setting [2] is 118 % of control and 123 % of control.

As for `O=C1CCCCC1C1(O)C(=O)Nc2ccccc21` (configuration not stated), the T/C (dose: 60.0 mg/kg/injection, schedule: Q01DX005 (ip), vehicle: saline) was 98 % of control; the T/C (dose: 120.0 mg/kg/injection, schedule: Q01DX005 (ip), vehicle: saline) was 89 % of control; the T/C (dose: 240.0 mg/kg/injection, schedule: Q01DX005 (ip), vehicle: saline) is 89 % of control.

With `O=NN(CCF)C(=O)Oc1ccc([N+](=O)[O-])cc1`, the T/C is 114 % of control (dose: 12.5 mg/kg/injection, schedule: Q01DX001 (ip), vehicle: Klucel (hydroxypropylcellulose) (HPC)) and 112 % of control (dose: 25.0 mg/kg/injection, schedule: Q01DX001 (ip), vehicle: Klucel (hydroxypropylcellulose) (HPC)).

In the case of `CC(=O)NCc1cc(C)c(CC#N)cc1CC#N`, the T/C is, setting by setting: (dose: 6.25 mg/kg/injection, schedule: Q01DX009 (ip), vehicle: distilled water + Tween-80) 100 % of control; (dose: 12.5 mg/kg/injection, schedule: Q01DX009 (ip), vehicle: distilled water + Tween-80) 89 % of control and 91 % of control; (dose: 25.0 mg/kg/injection, schedule: Q01DX009 (ip), vehicle: distilled water + Tween-80) 103 % of control; (dose: 50.0 mg/kg/injection, schedule: Q01DX009 (ip), vehicle: distilled water + Tween-80) 94 % of control; (dose: 100.0 mg/kg/injection, schedule: Q01DX009 (ip), vehicle: distilled water + Tween-80) 94 % of control.

In the case of `Cc1cc(-c2ccc(N=Nc3ccc4c(S(=O)(=O)O)cc(S(=O)(=O)O)c(N)c4c3O)c(C)c2)ccc1N=Nc1ccc2c(S(=O)(=O)O)cc(S(=O)(=O)O)c(N)c2c1O`, the T/C is, setting by setting: (dose: 12.5 mg/kg/injection, schedule: Q01DX009 (ip), vehicle: saline) 116 % of control; (dose: 25.0 mg/kg/injection, schedule: Q01DX009 (ip), vehicle: saline) 107 % of control.

For the molecule `Nc1nc(N)c2[nH]c(=O)[nH]c2n1`, the T/C runs as follows: under setting [6], 103 % of control; under setting [7], 103 % of control; under setting [8], 118 % of control.

`C[N+](C)(Cc1ccccc1)c1nnn[n-]1`: the T/C by setting is: (dose: 50.0 mg/kg/injection, schedule: Q01DX001 (ip), vehicle: Klucel (hydroxypropylcellulose) (HPC)) 97 % of control; under setting [9], 95 % of control; under setting [10], 105 % of control.

For `OCC(O)C1OC(c2ccccc2)OC(CO)C1O` (configuration not stated), the T/C runs as follows: under setting [6], 100 % of control; under setting [7], 109 % of control; under setting [8], 102 % of control.

`O=C(NCCSCCSCCSCCNC(=O)Oc1ccccc1)Oc1ccccc1`: the T/C by setting is: under setting [9], 92 % of control; under setting [10], 91 % of control.

As for `N#CCN(CNC(=O)c1ccccc1)N=O`, the T/C by setting is: under setting [4], 101 % of control; under setting [5], 105 % of control.

With `COc1ccc(CC#N)cc1OC`, the T/C runs as follows: (dose: 3.75 mg/kg/injection, schedule: Q01DX009 (ip), vehicle: saline with Tween-80) 90 % of control; (dose: 7.5 mg/kg/injection, schedule: Q01DX009 (ip), vehicle: saline with Tween-80) 90 % of control; (dose: 15.0 mg/kg/injection, schedule: Q01DX009 (ip), vehicle: saline with Tween-80) 90 % of control.

For `CCCCN(CCCC)CCN1C(=O)c2ccccc2S1(=O)=O`, the T/C (dose: 50.0 mg/kg/injection, schedule: Q01DX005 (ip), vehicle: saline) is 104 % of control; the T/C (dose: 100.0 mg/kg/injection, schedule: Q01DX005 (ip), vehicle: saline) is 109 % of control; the T/C (dose: 200.0 mg/kg/injection, schedule: Q01DX005 (ip), vehicle: saline) was 102 % of control.

These data come from PubChem BioAssay AID330 (DTP/NCI, 2004).
